Experimental data as given in patent US7923450B2, “Modulators for amyloid beta” (Hoffmann-La Roche Inc., priority 2008, dated 2011).

System: γ-secretase
Experiment: Cellular γ-secretase assay (Aβ42 secretion)
Type: cell-based
Conditions: inhibition of Aβ42 secretion; human neuroglioma H4 cells overexpressing human APP; 22 hrs incubation; read-out: EC50 in vitro
Protocol: Cellular γ-Secretase Assay
Human neuroglioma H4 cells overexpressing human APP were plated at 30,000 cells/well/200 μl in 96-well plates in IMDM media containing 10% FCS, 0.2 mg/l Hygromycin B and incubated for 2 h at 37° C., 5% CO2 prior to adding test compounds.
Compounds for testing were dissolved in 100% Me2SO yielding in a 10 mM stock solution. Typically 12 μl of these solutions were further diluted in 1000 μl of IMDM media (w/o FCS,). Sub sequential 1:1 dilutions gave a ten point dose response curve. 100 μl of each dilution was added to the cells in 96-well plates. Appropriate controls using vehicle only and reference compound were applied to this assay. The final concentration of Me2SO was 0.4%.
After incubation for 22 hrs at 37° C., 5% CO2, 50 μl supernatant was transferred into round-bottom 96-well polypropylene plates for detection of Aβ42. 50 μl assay buffer (50 mM Tris/Cl, pH 7.4, 60 mM NaCl, 0.5% BSA, 1% TWEEN 20) was added to the wells followed by the addition of 100 μl of detection antibody (ruthenylated Aβ42-specific antibody BAP15 0.0625 μg/mL in assay buffer). 50 μl of a premix of capture antibody (biotinylated 6E10 antibody, 1 μg/mL) and Steptavidin-coated magnetic beads (Dynal M-280, 0.125 mg/mL) were preincubated for 1 hr at room temperature before adding the assay plates. Assay plates were incubated on a shaker for 3 hrs at room temperature and finally read in the Bioveris M8 Analyser according to the manufacturer's instructions (Bioveris).
EC50 values for inhibition of Aβ42 secretion were calculated by nonlinear regression fit analysis using XLfit 4.0 software (IDBS).

EC50 | SMILES
0.32 µM | CCN1Cc2cnc(Nc3ccc(-n4cnc(C)c4)c(OC)c3)nc2C(c2ccccc2)C1 (stereo not drawn) [Example 44, (6-Ethyl-8-phenyl-5,6,7,8-tetrahydro-pyrido[4,3-d]pyrimidin-2-yl)-[3-methoxy-4-(4-methyl-imidazol-1-yl)-phenyl]-amine]
0.25 µM | COc1cc(Nc2ncc3c(n2)C(c2cc(F)c(F)c(F)c2)CCC3)ccc1-n1cnc(C)c1 (stereo not drawn) [Example 69, [3-Methoxy-4-(4-methyl-imidazol-1-yl)-phenyl]-[8-(3,4,5-trifluoro-phenyl)-5,6,7,8-tetrahydro-quinazolin-2-yl]-amine]
0.09 µM | COc1cc(Nc2nc3c(s2)CCCC3c2ccc(Cl)c(C(F)(F)F)c2)ccc1-n1cnc(C)c1 (stereo not drawn) [Example 16, [4-(4-Chloro-3-trifluoromethyl-phenyl)-4,5,6,7-tetrahydro-benzothiazol-2-yl]-[3-methoxy-4-(4-methyl-imidazol-1-yl)-phenyl]-amine]
0.252 µM | COc1cc(Nc2nc3c(s2)CCCC3c2ccccc2)ccc1-c1cnc(C)s1 (stereo not drawn) [Example 92, [3-Methoxy-4-(2-methyl-thiazol-5-yl)-phenyl]-(4-phenyl-4,5,6,7-tetrahydro-benzothiazol-2-yl)-amine]
0.07 µM | COc1cc(Nc2nc3c(s2)CN(Cc2ccccc2)CC3c2ccc(Cl)c(F)c2)ccc1-n1cnc(C)c1 (stereo not drawn) [Example 24, [5-Benzyl-7-(4-chloro-3-fluorophenyl)-4,5,6,7-tetrahydro-thiazolo[5,4-c]pyridin-2-yl]-[3-methoxy-4-(4-methyl-imidazol-1-yl)-phenyl]-amine]
0.21 µM | Cc1cn(-c2ccc(Nc3nc4c(s3)CCCC4c3ccccc3)cc2O)cn1 (stereo not drawn) [Example 66, 2-(4-Methyl-imidazol-1-yl)-5-(4-phenyl-4,5,6,7-tetrahydro-benzothiazol-2-ylamino)-phenol]
0.07 µM | COc1cc(Nc2nc3c(s2)CCCC3c2ccccc2Cl)ccc1-n1cnc(C)c1 (stereo not drawn) [Example 14, [4-(2-Chloro-phenyl)-4,5,6,7-tetrahydro-benzothiazol-2-yl]-[3-methoxy-4-(4-methyl-imidazol-1-yl)-phenyl]-amine]
0.07 µM | COc1cc(Nc2nc3c(s2)CN(Cc2ccccc2)CC3c2ccccc2Cl)ccc1-n1cnc(C)c1 (stereo not drawn) [Example 23]
0.08 µM | COc1cc(Nc2nc3c(s2)CCCC3c2cc(Cl)ccc2Cl)ccc1-n1cnc(C)c1 (stereo not drawn) [Example 26, [4-(2,5-Dichloro-phenyl)-4,5,6,7-tetrahydro-benzothiazol-2-yl]-[3-methoxy-4-(4-methyl-imidazol-1-yl)-phenyl]-amine]
0.27 µM | COc1cc(Nc2ncc3c(n2)C(c2ccccc2)CN(C(=O)OC(C)(C)C)C3)ccc1-n1cnc(C)c1 (stereo not drawn) [Example 40, 2-[3-Methoxy-4-(4-methyl-imidazol-1-yl)-phenylamino]-8-phenyl-7,8-dihydro-5H-pyrido[4,3-d]pyrimidine-6-carboxylic acid tert.-butyl ester]
0.07 µM | COc1cc(Nc2nc3c(s2)CCCC3c2cc(Cl)cc(Cl)c2)ccc1-n1cnc(C)c1 (stereo not drawn) [Example 27, [4-(3,5-Dichloro-phenyl)-4,5,6,7-tetrahydro-benzothiazol-2-yl]-[3-methoxy-4-(4-methyl-imidazol-1-yl)-phenyl]-amine]
0.09 µM | COc1cc(Nc2nc3c(s2)CCCC3c2ccc(C)c(F)c2)ccc1-n1cnc(C)c1 (stereo not drawn) [Example 15]
0.32 µM | c1ccc(C2CCCc3sc(Nc4ccc(-c5ccncc5)cc4)nc32)cc1 (stereo not drawn) [Example 94, (4-Phenyl-4,5,6,7-tetrahydro-benzothiazol-2-yl)-(4-pyridin-4-yl-phenyl)-amine]
0.12 µM | COc1cc(Nc2nc3c(s2)CCCC3c2cc(C)ccc2C)ccc1-n1cnc(C)c1 (stereo not drawn) [Example 13, [4-(2,5-Dimethyl-phenyl)-4,5,6,7-tetrahydro-benzothiazol-2-yl]-[3-methoxy-4-(4-methyl-imidazol-1-yl)-phenyl]-amine]
0.45 µM | CCOC1CCCc2cnc(Nc3ccc(-n4cnc(C)c4)c(OC)c3)nc21 (stereo not drawn) [Example 83, (8-Ethoxy-5,6,7,8-tetrahydro-quinazolin-2-yl)-[3-methoxy-4-(4-methyl-imidazol-1-yl)-phenyl]-amine]
